Columns and labels:
[1] = target: T1, recombinant FphH (rFphH) (Staphylococcus aureus, UniProt A0A0H2XJL0); experiment: biochemical; conditions: for selectivity in the dose-dependent response assay (in words): three Fphs tested
T1 sequence (A0A0H2XJL0 1-246): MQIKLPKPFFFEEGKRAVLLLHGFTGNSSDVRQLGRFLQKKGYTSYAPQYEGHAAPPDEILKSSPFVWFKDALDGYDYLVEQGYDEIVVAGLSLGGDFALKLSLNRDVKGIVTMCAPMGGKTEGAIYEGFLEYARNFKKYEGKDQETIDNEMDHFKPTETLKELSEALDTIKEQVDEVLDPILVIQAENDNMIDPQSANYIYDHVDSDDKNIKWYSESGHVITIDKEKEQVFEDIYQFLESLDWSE
Protocol: (§1) Fluorogenic substrate assays were performed as previously described[9],[11],[12]. […] Turnover rates in the linear phase of the reaction (10–20 min) were calculated using GraphPad prism 10.0 software as RFU/min. Rates were normalized by subtracting background hydrolysis rates measured for each substrate in reaction buffer in the absence of protein.
(§2) For the screening, 8 μL of enzyme solution was pipetted into the assay plates containing 50 nL compound and allowed to incubate for one hour at room temperature. […] For four-point dose response plates, 2.5, 10, 25, 50 nL droplets were transferred to get […], 10, 25, 50 μM compound concentrations in the 384 well plates again using an Echo acoustic liquid handler as above. […] Calculations were done with GraphPad Prism 10.0 software. […] IC50 values were derived from the fitted curve.

[2] = target: T2, recombinant FphE (rFphE) (Staphylococcus aureus, UniProt Q2FDS6); experiment: biochemical; conditions: from dose response IC50 values
T2 construct: otherwise full-length FphE (Uniprot ID Q2FDS6) and FphH (A0A0H2XJL0) proteins; His6 (3C-cleavable, pETNKI-his-3C-LIC vector) (N); made in house; E. coli is inferred from the pET28a-type vector, IPTG induction and LB/kanamycin
T2 sequence (Q2FDS6 1-276): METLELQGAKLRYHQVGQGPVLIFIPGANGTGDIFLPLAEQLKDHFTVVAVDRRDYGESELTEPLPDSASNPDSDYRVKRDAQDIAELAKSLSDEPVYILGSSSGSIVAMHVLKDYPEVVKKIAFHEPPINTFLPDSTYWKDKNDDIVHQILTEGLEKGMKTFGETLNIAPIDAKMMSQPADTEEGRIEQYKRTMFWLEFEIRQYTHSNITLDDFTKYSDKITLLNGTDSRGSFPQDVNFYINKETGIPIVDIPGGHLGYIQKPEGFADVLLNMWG
Protocol: as §1, §2

[3] = tested on: Fph enzymes in live S. aureus cells (USA300); experiment: Competition of FP-alkyne labeling in live S. aureus cells; format: cell-based, Staphylococcus aureus; conditions: 100 μM compound, live S. aureus cells
Protocol: One colony of each of S. aureus wild-type and transposon mutants fphB::Tn, fphE::Tn and fphH::Tn picked from growth on a Tryptic soya agar plate were inoculated in 5 mL of Tryptic soya broth (TSB). The overnight bacterial cultures were spun down at 5,000 g for 10 min and pellet was collected. The pellets were washed twice in 1X PBS buffer and resuspended in the same buffer. Cells were first preincubated with the indicated concentrations of inhibitors for 2hr at 37°C. The cells were washed twice with 1X PBS buffer. The resuspended pellets were incubated with Fluorophosphonate-alkyne (FP-alkyne) for 30 min at 37°C. Cells were washed again twice with 1X PBS buffer and resuspended in with 1X PBS and 0.1% Triton–X and lysed by beat beating at 4°C. Next, lysed cells (20 μL) were mixed with 2.16 μL of freshly prepared click mix (0.5 μL of 50 mM CuSO4 in H2O, 1.16 μL of 100 mM BTTAA in DMSO, and 0.5 μL of N3-Cy5 in DMSO) and 1.16 μL of 300 mM sodium ascorbate solution in H2O and incubated at 37 °C for 30 min. Next step, 20 μL of 4X SDS loading buffer was added in each sample and boiled at 100 °C for 10 min. The processed samples were allowed to cool and analyzed by SDS-PAGE (12%) running at 120 V in an electrophoresis chamber. Cy5 fluorescence was imaged using the Cy5 channel on a Typhoon 9410 Imager (Amersham Biosciences).

[4] = Stability in aqueous assay buffer by LC/MS; format: physicochemical
From the text: This shift was not observed in the acidic mass spectrometry buffer (0.1% formic acid (FA) in H2O as buffer A, and 0.1% FA in acetonitrile (ACN) as buffer B; SI details). We therefore reasoned that the molecule likely reacts to release the fluoride under neutral pH conditions (Fig. 3c). Given the presence of the amide nitrogen in close proximity to the sulfur (VI) atom we reasoned that it likely produces a saccharine-like structure by a cyclization to release the fluorine atom[31]. This would create a molecule that could then be ring-opened by attack by the active site serine on the sulfur center, resulting in irreversible protein modification. […] We were able to purify the non-cyclized OSF-fragment, X13d under acidic conditions, as well as the cyclized OSF-fragment, X13e. We observed a clear mass difference of 20 Da between the two purified species by LC/MS analysis.

[5] = target: T3, rFphE (Staphylococcus aureus, UniProt Q2FDS6); experiment: Mass spectrometry of rFphE labeling; format: binding
T3 construct: otherwise full-length FphE (Uniprot ID Q2FDS6) and FphH (A0A0H2XJL0) proteins; His6 (3C-cleavable, pETNKI-his-3C-LIC vector) (N); made in house; E. coli is inferred from the pET28a-type vector, IPTG induction and LB/kanamycin
T3 sequence (Q2FDS6 1-276): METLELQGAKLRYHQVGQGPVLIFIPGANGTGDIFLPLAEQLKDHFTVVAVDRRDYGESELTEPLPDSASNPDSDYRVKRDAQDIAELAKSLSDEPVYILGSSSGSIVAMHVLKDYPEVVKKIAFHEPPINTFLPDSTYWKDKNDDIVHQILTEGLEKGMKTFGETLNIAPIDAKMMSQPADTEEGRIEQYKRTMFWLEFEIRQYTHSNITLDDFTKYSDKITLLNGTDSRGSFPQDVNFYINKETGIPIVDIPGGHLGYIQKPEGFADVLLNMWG

[6] = target: T4, rFphH (Staphylococcus aureus, UniProt A0A0H2XJL0); experiment: FP-Cy5 active site labeling of recombinant protein, rFphH; format: binding; conditions: 500 nM rFphH
T4 construct: otherwise full-length FphE (Uniprot ID Q2FDS6) and FphH (A0A0H2XJL0) proteins; His6 (3C-cleavable, pETNKI-his-3C-LIC vector) (N); made in house; E. coli is inferred from the pET28a-type vector, IPTG induction and LB/kanamycin
T4 sequence (A0A0H2XJL0 1-246): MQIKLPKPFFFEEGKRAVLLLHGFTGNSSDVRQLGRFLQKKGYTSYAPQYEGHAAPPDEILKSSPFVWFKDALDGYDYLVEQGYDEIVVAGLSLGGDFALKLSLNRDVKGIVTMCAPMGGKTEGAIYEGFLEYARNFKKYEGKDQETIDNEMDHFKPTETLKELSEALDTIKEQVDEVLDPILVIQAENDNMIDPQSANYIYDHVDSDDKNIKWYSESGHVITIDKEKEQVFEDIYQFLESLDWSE
Protocol: For activity-based protein labeling experiments, 500 nM of rFphB, rFphE and rFphH in 1X PBS and 0.1% Triton–X were preincubated with different concentrations of inhibitors or DMSO for 2hr at room temperature, followed by adding 300 nM of fluorophosphonate (FP) alkyne and incubated for 30 min at room temperature. Next, 20 μL of the reaction volume were mixed with 2.16 μL of freshly prepared click mix (0.5 μL of 50 mM CuSO4 in H2O, 1.16 μL of 100 mM BTTAA in DMSO, and 0.5 μL of N3-Cy5 in DMSO) and 1.16 μL of 300 mM sodium ascorbate solution in H2O. Samples were incubated at 37°C for 30 min, boiled in SDS loading buffer and analyzed by SDS–PAGE. Cy5 fluorescence was imaged using the Cy5 channel on a Typhoon 9410 Imager (Amersham Biosciences).

[7] = tested on: Fph enzymes in S. aureus USA300 WT lysates; experiment: Competition of FP labeling in S. aureus lysates; format: binding, Staphylococcus aureus; conditions: 120 min preincubation
Protocol: Figure 3 Biochemical characterization of fluorosulfate-based fragments. […] (d) LC/MS profiles for X13d and X13e in LC/MS buffer or aqueous buffer. (e) Proposed reaction mechanism of X13d or X13e binding to rFphH, Fluorescence SDS-PAGE image of rFphH for direct visualization of labelling by clickable probes X13d and X13e with Cy5-azide. (f) Native mass spectrometry (MS) characterization of 1μM rFphH alone or after 1hr incubation with 10 μM X13d or X13e. […] (h) Competition of FP-Cy5 labeling of S. aureus lysates. […] The indicated Fph transposon mutants (::Tn) lysates are included to highlight the location of the three enzymes in the gel. All data shown are representative of three independent experiments.
Cells were then lysed and click labeled with sulfo-Cy5 azide and analyzed by SDS-PAGE. […] We hypothesized this lack of competition may have been due to the inability to permeate the cell membranes. For bacteria, the permeability is influenced by the polarity of the compound, measured by clogP. Drugs targeting Gram-negative bacteria show higher polarities (clogP = − 0.1) compared to those targeting Gram-positive bacteria (clogP = 2.1)[32],[33]. […] Overall, this electrophile has a unique mechanism of binding with the active site serine of FphH and may be a valuable new electrophile class to target other serine hydrolases.

[8] = target: T5, recombinant FphB (rFphB) (Staphylococcus aureus, UniProt A0A0H2XJG5); format: biochemical; conditions: enzyme inhibition assay
T5 construct: made in house
Protocol: as §1, §2

[9] = target: T4, rFphH; experiment: Intact protein LC-MS of rFphH with inhibitors; format: binding; conditions: 1 μM rFphH, 10 μM probe, 1hr
Protocol: Next, 10 μL of the labeled sample was injected and analyzed by LC-MS. […] Protein labeling efficiency was quantified by UV. The acquired mass of protein was deconvoluted using the deconvolution software in Agilent Bioanalysis Software package.

[10] = target: the molecule itself; experiment: crystal structure

T5 sequence (A0A0H2XJG5 entry or part of it): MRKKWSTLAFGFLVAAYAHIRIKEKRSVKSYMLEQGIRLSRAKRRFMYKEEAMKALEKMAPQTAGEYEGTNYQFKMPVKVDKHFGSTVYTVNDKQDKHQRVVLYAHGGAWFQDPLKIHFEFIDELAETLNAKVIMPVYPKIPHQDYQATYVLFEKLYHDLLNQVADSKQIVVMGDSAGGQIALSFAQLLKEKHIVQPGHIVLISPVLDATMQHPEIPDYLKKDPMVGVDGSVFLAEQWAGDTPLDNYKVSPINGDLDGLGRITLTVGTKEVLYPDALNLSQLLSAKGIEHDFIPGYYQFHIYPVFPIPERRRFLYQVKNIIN

Molecule: CC1(C)OB(c2cnc3c(c2)CC(=O)N3)OC1(C)C [AF22]
- selectivity in the dose-dependent response assay (in words) [1]: quite selective for rFphH

Molecule: CN1CCCN(C(=O)c2ccc(S(=O)(=O)F)cc2)c2ccccc21 [L17]
- IC50 ([1]; IC50 (μM) FphH, 5 nM rFphH, 1 hr preincubation, 0.01–50 μM, N.D. = IC50 could not be determined due to incomplete inhibition at the highest concentration tested): 3 µM

Molecule: Cc1cc(B2OC(C)(C)C(C)(C)O2)ccc1S(N)(=O)=O [Q41]
- selectivity in the dose-dependent response assay (in words) [1]: quite selective for rFphH

Molecule: COc1cc(OC)cc(B(O)O)c1 [W41]
- selectivity for rFphE over rFphH [2]: ~100 fold
- competition of FP labeling in live cells (in words) [3]: unable to block FP labeling of any of the Fph enzymes

Molecule: Cc1ccc(OS(=O)(=O)F)c(C(=O)Nc2ccncc2)c1 [X13]
- mass shift upon incubation in aqueous buffer ([4]; 1X Phosphate buffer saline pH 7.5, 60 min, absence of protein): 20 Da
- labeling of rFphE by mass-spectrometry (in words) [5]: No labeling
- selectivity (higher potency) for rFphH over rFphE ([1]; from dose response IC50 values): ~100 fold
- competition of FP labeling in live cells (in words) [3]: Neither of the compounds competed with FP labeling in intact cells
- competition of FP-Cy5 labeling of rFphH (in words) [6]: dose-dependent competition of protein labeling
- competition of FP labeling in lysates (in words) [7]: dose-dependently competed with FP labeling of rFphH as well as rFphE at higher concentrations
- inhibition of rFphB (in words) [8]: no activity against rFphB

Molecule: O=C(Nc1ccncc1)c1ccccc1OS(=O)(=O)F [X13a]
- competition of FP labeling in live cells (in words) [3]: Neither of the compounds competed with FP labeling in intact cells
- competition of FP-Cy5 labeling of rFphH (in words) [6]: dose-dependent competition of protein labeling
- competition of FP labeling in lysates (in words) [7]: dose-dependently competed with FP labeling of rFphH as well as rFphE at higher concentrations

Molecule: C#Cc1cnccc1NC(=O)c1ccccc1OS(=O)(=O)F [X13d]
- conversion in pH 7.5 buffer (in words) ([4]; pH 7.5 buffer): rapidly converted to the cyclic version
- mass shift of rFphH (in words) [9]: produced the expected mass shift

Molecule: C#Cc1cnccc1N1C(=O)c2ccccc2OS1(=O)=O [X13e]
- mass shift of rFphH (in words) [9]: produced the expected mass shift

B1: FphE (fluorophosphonate-binding hydrolase E), S. aureus USA300, crystallography construct (enzyme)
chain: GPGMETLELQGAKLRYHQVGQGPVLIFIPGANGTGDIFLPLAEQLKDHFTVVAVDRRDYGESELTEPLPDSASNPDSDYRVKRDAQDIAELAKSLSDEPVYILGSSSGSIVAMHVLKDYPEVVKKIAFHEPPINTFLPDSTYWKDKNDDIVHQILTEGLEKGMKTFGETLNIAPIDAKMMSQPADTEEGRIEQYKRTMFWLEFEIRQYTHSNITLDDFTKYSDKITLLNGTDSRGSFPQDVNFYINKETGIPIVDIPGGHLGYIQKPEGFADVLLNMWG
notes: also called rFphE; source: E. coli expression from pet28a-(pETNKI-his-3C-LIC-kan), purified (Ni-NTA, size exclusion); tag cleaved with 3C protease
- binding result [10]: binds

From paper PMC11661381, “Covalent-fragment screening identifies selective inhibitors of multiple Staphylococcus aureus serine hydrolases important for growth and biofilm formation” (Research Square, 2024)
